Source: US20220041647A1, “ESTRA-1,3,5(10)-TRIENE COMPOUNDS CONDENSED IN POSITION 16(17) WITH A PYRAZOLE RING AS INHIBITORS OF 17-HSD1” (FORENDO PHARMA LTD, priority 2018, published 2022)

Legend:
Assay type in all cases: biochemical
[1] = target: T1, recombinant human 17β-HSD1 (Homo sapiens, UniProt P14061); experiment: Inhibition of recombinant human 17β-HSD1 (estrone to estradiol conversion, HPLC/radioactivity); details: compound 100 nM; 30 nM estrone, 1 mM NADPH, 30 min RT
T1 construct: made in house; host or cells: Sd9 (Sf9) insect cells, baculovirus (Bac to Bac Expression System)
T1 sequence (P14061 1-328): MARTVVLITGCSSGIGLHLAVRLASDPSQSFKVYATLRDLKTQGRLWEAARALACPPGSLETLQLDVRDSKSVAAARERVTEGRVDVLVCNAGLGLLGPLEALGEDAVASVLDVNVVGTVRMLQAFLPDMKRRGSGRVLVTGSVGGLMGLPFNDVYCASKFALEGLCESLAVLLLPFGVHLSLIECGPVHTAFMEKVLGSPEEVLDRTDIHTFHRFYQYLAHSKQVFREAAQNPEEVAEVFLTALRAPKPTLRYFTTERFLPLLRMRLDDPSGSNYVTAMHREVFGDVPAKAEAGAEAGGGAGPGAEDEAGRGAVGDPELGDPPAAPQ
Description: 17β-HSD1 production and isolation: Recombinant baculovirus was generated by the “Bac to Bac Expression System” (Invitrogen). Recombinant bacmid was transfected to Sd9 insect cells using “Cellfectin Reagent” (Invitrogen). 60 h later cells were harvested; the microsomal fraction was isolated as described by Puranen, T. J., Poutanen, M. H., Peltoketo, H. E., Vihko, P. T. and Vihko, R. K. (1994) Site-directed mutagenesis of the putative active site of human 17 β-hydroxysteroid dehydrogenase type 1. Biochem. J. 304: 289-293. Aliquots were stored frozen until determination of enzymatic activity.
Assay—Inhibition of recombinant human 17β-HSD1: Recombinant protein (1 μg/ml) was incubated in 20 mM KH2PO4 pH 7.4 with 30 nM estrone (including 800 000 cpm/ml of ^3H-estrone) and 1 mM NADPH for 30 min at RT, in the presence of the potential inhibitor at concentrations 1 μM or 0.1 μM. Inhibitor stock solutions were prepared in DMSO. Final concentration of DMSO was adjusted to 1% in all samples. The enzyme reaction was stopped by addition of 10% trichloroacetic acid (final concentration). Samples were centrifuged in a microtiter plate at 4000 rpm for 10 min. Supernatants were applied to reverse phase HPLC on a Waters Symmetry C18 column, equipped with a Waters Sentry Guard column. Isocratic HPLC runs were performed at RT at a flow rate of 1 ml/min in acetonitrile:water 48:52 as running solvent. Radioactivity was monitored in the eluate by a Scintillation Analyzer. Total radioactivity for estrone and estradiol were determined in each sample and percent conversion of estrone to estradiol was calculated according to the following formula:
% conversion=100×{(cpm estradiol in sample with inhibitor)/[(cpm estrone in sample with inhibitor)+(cpm estradiol in sample with inhibitor)]}/{[(cpm estradiol in sample without inhibitor)/[(cpm estrone in sample without inhibitor)+(cpm estradiol in sample without inhibitor)]}.
(§1) Percent inhibition was calculated followingly: % inhibition=100−% conversion.

[2] = tested on: HSD1 enzyme that is expressed in rabbit placenta tissue; experiment: Inhibition of E1 to E2 conversion in rabbit placenta tissue homogenate; details: compound 100 nM, 30 nM estrone, 1 mM β-NADPH, 30 min
Description: The assay is based on an enzymatic reaction where HSD1 enzyme that is expressed in rabbit placenta tissue converts its natural substance estrone (E1) to estradiol (E2) in the presence of a co-factor β-NADPH.
Homogenization of rabbit placenta tissue: Weight a piece of the frozen tissue into a Precellys ck28 bead tube. Add buffer solution (20 mM KH2PO4 with 1 mM EDTA, pH 7.4) in 1:2 ratio (e.g. 300 mg of tissue:600 μl reaction buffer solution). Insert the bead tubes to homogenizer and homogenize 2×30 s. 6000 rpm.
Centrifugated 5 min., 2600 rpm at +4° C. and collect supernatant. Aliquots of homogenate are stored in −80° C.
Assay—Inhibition of E1 to E2 conversion in rabbit placenta tissue: The reaction takes place in a buffer solution (20 mM KH2PO4 with 1 mM EDTA, pH 7,4), including appropriate amount of rabbit placenta homogenate, co-factor (1 mM β-NADPH), Substrate (30 nM estrone), labelled substrate as tracer (5 nM [^3H]-estrone), and the potential inhibitor at concentrations 1 μM or 0.1 μM. Inhibitor stock solutions were prepared in DMSO. Final concentration of DMSO was adjusted to 1% in all samples. During a 30-minute incubation part of the estrone is converted to estradiol. The reaction is stopped by lowering the pH to 1 with 10% trichloro acetic acid (TCA). The substrate and conversion products are analyzed by HPLC and a Scintillation counter analyzer. Total radioactivity for estrone and estradiol were determined in each sample and percent conversion of estrone to estradiol was calculated according to the following formula:
% conversion=100×{(cpm estradiol in sample with inhibitor)/[(cpm estrone in sample with inhibitor)+(cpm estradiol in sample with inhibitor)]}/{(cpm estradiol in sample without inhibitor)/[(cpm estrone in sample without inhibitor)+(cpm estradiol in sample without inhibitor)]}.
as §1

[3] = target: T2, recombinant human 17β-HSD2 (Homo sapiens, UniProt P37059); experiment: Inhibition of recombinant human 17β-HSD2 (estradiol to estrone conversion, HPLC/radioactivity); details: compound 1 μM; 50 nM estradiol, 1 mM NADH, 30 min RT
T2 construct: made in house; host or cells: Sd9 (Sf9) insect cells, baculovirus (Bac to Bac Expression System)
T2 sequence (P37059 1-387): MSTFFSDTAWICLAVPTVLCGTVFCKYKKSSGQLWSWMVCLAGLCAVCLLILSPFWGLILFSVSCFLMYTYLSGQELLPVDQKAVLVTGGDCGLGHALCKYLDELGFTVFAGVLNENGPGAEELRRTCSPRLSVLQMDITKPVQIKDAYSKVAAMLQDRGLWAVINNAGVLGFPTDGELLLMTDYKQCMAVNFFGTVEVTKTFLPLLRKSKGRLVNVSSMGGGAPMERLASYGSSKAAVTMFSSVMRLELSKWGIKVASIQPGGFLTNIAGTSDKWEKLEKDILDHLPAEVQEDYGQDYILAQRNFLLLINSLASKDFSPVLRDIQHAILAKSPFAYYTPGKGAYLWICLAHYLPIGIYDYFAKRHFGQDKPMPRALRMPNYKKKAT
Description: 17β-HSD2 production and isolation: Similarly to 173-HSD1 the Recombinant baculovirus was generated by the “Bac to Bac Expression System” (Invitrogen). Recombinant bacmid was transfected to Sd9 insect cells using “Cellfectin Reagent” (Invitrogen). 60 h later cells were harvested and supernatant were fractionated by the following protocol: • cells were dissolved into 40 ml of A-buffer (40 mM TRIS, pH8.0, 20% glycerol, 20 μM NAD, 0.4 mM PMSF, 150 mM NaCl, 0.5% dodecyl-β-maltoside+protease inhibitor cocktail) • cells were sonicated • lysate was incubated on ice for 15 min • lysate was centrifuged 5000 rpm 15 min, +4° C. • centrifugation of the supernatant 180 000 g 30 min, +4° C. • pellet was dissolved into 8 ml of A-buffer • not resuspended material was removed by centrifugation 5000 rpm 15 min, +4° C. • the clear supernatant was divided into 100 μl aliquots and were stored frozen until determination of enzymatic activity.
The amount of 173-HSD2 was analysed by immunoblotting and total protein concentration of each extract batch was determined.
Assay—Inhibition of recombinant human 17β-HSD2: Recombinant protein (4 μg/ml) was incubated in 20 mM KH2PO4 pH 8.5 with 50 nM estradiol (including 800 000 cpm/ml of ^3H-estradiol) and 1 mM NADH for 30 min at RT, in the presence of the potential inhibitor at concentrations 1 μM or 0.1 μM. Inhibitor stock solutions were prepared in DMSO. Final concentration of DMSO was adjusted to 1% in all samples. The enzyme reaction was stopped by addition of 10% trichloroacetic acid (final concentration). Samples were centrifuged in a microtiter plate at 4000 rpm for 10 min. Supernatants were applied to reverse phase HPLC on a Waters Symmetry C18 column, equipped with a Waters Sentry Guard column. Isocratic HPLC runs were performed at RT at a flow rate of1 ml/min in acetonitrile:water 48:52 as running solvent. Radioactivity was monitored in the eluate by a Scintillation Analyzer. Total radioactivity for estrone and estradiol were determined in each sample and percent conversion of estradiol to estrone was calculated according to the following formula:
% conversion=100×{(cpm estrone in sample with inhibitor)/[(cpm estradiol in sample with inhibitor)+(cpm estrone in sample with inhibitor)]}/{[(cpm estrone in sample without inhibitor)/[(cpm estradiol in sample without inhibitor)+(cpm estrone in sample without inhibitor)]}.
as §1

SMILES | inhibition at 0.1 µM [1] [%] | Rabbit placenta inhibition % @100 nM [2] [%] | inhibition at 1 µM [3] [%]
Cc1nnc(NC(=O)CC[C@@H]2c3c[nH]nc3[C@@]3(C)CCC4c5cccc(F)c5CCC4C23)o1 (stereo partly drawn) [Compound 66, 3-((8aS,12S)-3-fluoro-8a-methyl-1,2,6b,7,8,8a,10,12,12a,12b-decahydronaphtho[2′,1′:4,5]indeno[1,2-c]pyrazol-12-yl)-N-(5-methyl-1,3,4-oxadiazol-2-yl)propanamide] | 74 | 39 | 3
C[C@]12CCC3c4cccc(F)c4CCC3C1[C@H](CCC(=O)NN1CCCCC1)c1c[nH]nc12 (stereo partly drawn) [Compound 69, 3-((8aS,12S)-3-fluoro-8a-methyl-1,2,6b,7,8,8a,10,12,12a,12b-decahydronaphtho[2′,1′:4,5]indeno[1,2-c]pyrazol-12-yl)-N-(piperidin-1-yl)propanamide] | 93 | 10 | 1
CN1CCC(N2CCN(C(=O)CC[C@@H]3c4c[nH]nc4[C@@]4(C)CCC5c6cccc(F)c6CCC5C34)CC2)CC1 (stereo partly drawn) [Compound 75, 3-((8aS,12S)-3-fluoro-8a-methyl-1,2,6b,7,8,8a,10,12,12a,12b-decahydronaphtho[2′,1′:4,5]indeno[1,2-c]pyrazol-12-yl)-1-(4-(1-methylpiperidin-4-yl)piperazin-1-yl)propan-1-one] | 71 | 15 | 2
Cc1cc(NC(=O)CC[C@@H]2c3c[nH]nc3[C@@]3(C)CCC4c5cccc(F)c5CCC4C23)no1 (stereo partly drawn) [Compound 78, 3-((8aS,12S)-3-fluoro-8a-methyl-1,2,6b,7,8,8a,10,12,12a,12b-decahydronaphtho[2′,1′:4,5]indeno[1,2-c]pyrazol-12-yl)-N-(5-methylisoxazol-3-yl)propanamide] | 87 | 39 | 3
C[C@]12CCC3c4cccc(F)c4CCC3C1[C@H](CCC(=O)Nc1nncs1)c1c[nH]nc12 (stereo partly drawn) [Compound 81, 3-((8aS,12S)-3-fluoro-8a-methyl-1,2,6b,7,8,8a,10,12,12a,12b-decahydronaphtho[2′,1′:4,5]indeno[1,2-c]pyrazol-12-yl)-N-(1,3,4-thiadiazol-2-yl)propanamide] | 81 | 31 | 3
CC(C)(C)c1cc(NC(=O)CC[C@@H]2c3c[nH]nc3[C@@]3(C)CCC4c5ccc(F)cc5CCC4C23)no1 (stereo partly drawn) [Compound 102, N-(5-(tert-butyl)isoxazol-3-yl)-3-((8aS,12 S)-4-fluoro-8a-methyl-1,2,6b,7,8,8a,10,12,12a,12b-decahydronaphtho[2′,1′:4,5]indeno[1,2-c]pyrazol-12-yl)propanamide] | 80 | 19 | 8
C[C@]12CCC3c4ccc(F)cc4CCC3C1[C@H](CCC(=O)Nc1cccc(F)n1)c1c[nH]nc12 (stereo partly drawn) [Compound 105, 3-((8aS,12S)-4-fluoro-8a-methyl-1,2,6b,7,8,8a,10,12,12a,12b-decahydronaphtho[2′,1′:4,5]indeno[1,2-c]pyrazol-12-yl)-N-(6-fluoropyridin-2-yl)propanamide] | 82 | 28 | 9
COc1ccc(NC(=O)CC[C@@H]2c3c[nH]nc3[C@@]3(C)CCC4c5ccc(F)cc5CCC4C23)nn1 (stereo partly drawn) [Compound 108, 3-((8aS,12S)-4-fluoro-8a-methyl-1,2,6b,7,8,8a,10,12,12a,12b-decahydronaphtho[2′,1′:4,5]indeno[1,2-c]pyrazol-12-yl)-N-(6-methoxypyridazin-3-yl)propanamide] | 56 | 45 | -2
